In experiment [1] the test system is MaxiK-channel (large conductance Ca-activated K channel). Particulars: cited from earlier work.
The subject of another experiment is potassium channels. Particulars: cited from earlier work.
The subject of experiment [2] is Shaker K channel, inactivation-removed. The following applies: cited from earlier work.
Experiment [3] addresses Shaker H4 Δ(6-46) K channel (inactivation-removed, Shaker IR) (Drosophila melanogaster, UniProt P08510, DEL6-46). In kind it is cell-based.

Here are results for two substances from publication PMC2229644 (The Journal of General Physiology, 1999).

Chain of Shaker H4 Δ(6-46) K channel (inactivation-removed, Shaker IR) (P08510 1-655 with tags or gaps DEL6-46): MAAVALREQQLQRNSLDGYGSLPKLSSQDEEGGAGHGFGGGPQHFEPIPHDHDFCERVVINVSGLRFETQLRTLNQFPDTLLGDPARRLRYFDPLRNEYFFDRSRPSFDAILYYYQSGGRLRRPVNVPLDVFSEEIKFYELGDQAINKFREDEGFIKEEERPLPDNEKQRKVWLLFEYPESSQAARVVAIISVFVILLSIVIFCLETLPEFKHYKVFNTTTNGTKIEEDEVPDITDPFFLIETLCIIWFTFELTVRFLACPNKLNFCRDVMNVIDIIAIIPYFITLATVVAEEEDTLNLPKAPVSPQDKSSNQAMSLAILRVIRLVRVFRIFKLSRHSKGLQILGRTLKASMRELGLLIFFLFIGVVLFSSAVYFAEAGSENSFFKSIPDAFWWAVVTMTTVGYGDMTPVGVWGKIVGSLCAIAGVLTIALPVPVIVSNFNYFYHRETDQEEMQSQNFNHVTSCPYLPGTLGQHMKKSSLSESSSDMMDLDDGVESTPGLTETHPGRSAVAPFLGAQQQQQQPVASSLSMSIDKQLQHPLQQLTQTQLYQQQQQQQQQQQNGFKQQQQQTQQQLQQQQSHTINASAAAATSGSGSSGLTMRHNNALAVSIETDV

As to charybdotoxin [CTX], in experiment [1], the “effective valence zδ in absence of internally present permeant cations” value was “zδ vanishes”. Moreover, the “association rate constant, k on” value with potassium channels is 6.1e+07 M⁻¹ s⁻¹.
In the case of tetraethylammonium [TEA^+], the “effect of external TEA^+ on extent of κ-PVIIA blockade” value in experiment [2] is reported as “reduces the extent of the blockade”. The “effect of TEA^+ on CTX association and dissociation rates” value in experiment [1] is recorded as “only reduces the association rate of CTX”. Moreover, in experiment [3], the “effect on apparent association rate of κ-PVIIA” value was “decreases the apparent association rate”, the “effect on dissociation rate of κ-PVIIA” value is “little effect on the dissociation rate” and the “underestimation of κ-PVIIA k on by 1 mM TEA^+” value is listed as roughly 10%.
